Reference: US20120225118A1, “COMPOSITIONS FOR DELIVERY OF INSOLUBLE AGENTS” (Latitude Pharmaceuticals Incorporated, priority 2009, published 2012)
Values after ≈ are worked out from the molar mass of the structure shown. Read-outs that look alike come from different tables or passages of the source.

Legend:
[1] = 25° C., cited from earlier work
[2] = Solubility in aqueous 0.2% SDS; assay type: physicochemical; conditions: 37 °C, aqueous with cosolvent or surfactant or cyclodextrin, thermodynamic from solid
Experimental: About 5.5 mg itraconazole or an amount of the preparations obtained according to Example 3 containing 5.5 mg itraconazole was placed in 500 mL aqueous solution of 0.2% SDS. The mixture was stirred at 37° C. for 24 hours. About 5 mL of the solution was taken and filtered through a 0.45 μm filter. The filtrate was analyzed by HPLC for concentration of itraconazole.

Row | solubility at 24 h [2] | SMILES | volume of solvent required to dissolve 1 gram ([1]; ethanol) | volume of solvent required to dissolve 1 gram ([1]; water)
1 | – | CC(=O)Oc1ccccc1C(=O)O [aspirin] | 5 mL | 300 mL
2 | 6.44 ± 0.08 µg/mL (≈ 9.13 µM) | CCC(C)n1ncn(-c2ccc(N3CCN(c4ccc(OCC5COC(Cn6cncn6)(c6ccc(Cl)cc6Cl)O5)cc4)CC3)cc2)c1=O (stereo not drawn) [itraconazole] | – | –
